Results published in US8691991B2 (priority 2004, dated 2014).

The compounds below were run on Pseudotyped HIV vector (assay: Pseudotyped HIV vector expressing luciferase reporter assay). Settings: Human immunodeficiency virus 1.
Type: cell-based
Protocol: Pseudotyped HIV Vector Expressing Luciferase Reporter Assay
Expression of luciferase reporter following viral integration was performed essentially as described in Jármy, G. et al., J. Medical Virology, 64:223-231, 2001.
For `CCn1c(=O)c(C(=O)N[C@@H](C)CO)c(O)c2ncc(Cc3ccc(F)cc3)cc21` [Example 124, Sodium 1-ethyl-7-[(4-fluorophenyl)methyl]-3-({[(1S)-2-hydroxy-1-methylethyl]amino}carbonyl)-2-oxo-1,2-dihydro-1,5-naphthyridin-4-olate], the IC50 was under 0.01 µM. `COCCNC(=O)c1c(O)c2ncc(Cc3ccc(F)cc3)cc2n(CC(N)=O)c1=O` [Example 162, 1-(2-Amino-2-oxoethyl)-7-[(4-fluorophenyl)methyl]-4-hydroxy-N-[2-(methyloxy)ethyl]-2-oxo-1,2-dihydro-1,5-naphthyridine-3-carboxamide] showed an IC50 of under 0.01 µM. Compound `O=C(NCCO)c1c(O)c2ncc(Cc3ccc(F)cc3)cc2n(-c2ccc(F)cc2)c1=O` [Example 200, 1-(4-Fluorophenyl)-7-[(4-fluorophenyl)methyl]-4-hydroxy-N-(2-hydroxyethyl)-2-oxo-1,2-dihydro-1,5-naphthyridine-3-carboxamide] has an IC50 of under 0.01 µM. `CNC(=O)c1c(O)c2ncc(Cc3ccc(F)cc3)cc2n(CC(=O)N(C)C)c1=O` [Example 237, 1-[2-(Dimethylamino)-2-oxoethyl]-7-(4-fluorobenzyl)-4-hydroxy-N-methyl-2-oxo-1,2-dihydro-1,5-naphthyridine-3-carboxamide] gave an IC50 of under 0.01 µM. Work on `C[C@@H](O)CNC(=O)c1c(O)c2ncc(Cc3ccc(F)cc3)cc2n(CCN2CCCC2=O)c1=O` [Example 429, 7-(4-Fluorobenzyl)-4-hydroxy-N-[(2R)-2-hydroxypropyl]-2-oxo-1-[2-(2-oxopyrrolidin-1-yl)ethyl]-1,2-dihydro-1,5-naphthyridine-3-carboxamide] yielded an IC50 of under 0.01 µM. In the case of `CNC(=O)Cn1c(=O)c(C(=O)NCCOC)c(O)c2ncc(Cc3ccc(F)cc3)cc21` [Example 465, 7-[(4-Fluorophenyl)methyl]-4-hydroxy-1-[2-(methylamino)-2-oxoethyl]-N-[2-(methyloxy)ethyl]-2-oxo-1,2-dihydro-1,5-naphthyridine-3-carboxamide], the IC50 is reported as under 0.01 µM. `COCCNC(=O)c1c(O)c2ncc(Cc3ccc(F)cc3)cc2n(Cc2nccn2C)c1=O` [Example 467, 7-[(4-Fluorophenyl)methyl]-4-hydroxy-1-[(1-methyl-1H-imidazol-2-yl)methyl]-N-[2-(methyloxy)ethyl]-2-oxo-1,2-dihydro-1,5-naphthyridine-3-carboxamide] was tested, and the IC50 was under 0.01 µM. For `Cn1c(=O)c(C(=O)NC[C@@H](O)CO)c(O)c2ncc(Cc3ccc(F)cc3)cc21` [Example 516, N-[(2R)-2,3-Dihydroxypropyl]-7-[(4-fluorophenyl)methyl]-4-hydroxy-1-methyl-2-oxo-1,2-dihydro-1,5-naphthyridine-3-carboxamide], the IC50 was under 0.01 µM. Compound `CCN(CC)CCNC(=O)c1c(O)c2ncc(Cc3ccccc3)cc2[nH]c1=O` [N-[2-(Diethylamino)ethyl]-4-hydroxy-2-oxo-7-(phenylmethyl)-1,2-dihydro-1,5-naphthyridine-3-carboxamide, reference compound] has an IC50 of over 0.15 µM.

Same assay, conditions: luciferase reporter following viral integration; read-out: IC50
In the case of `C[C@H](O)CNC(=O)c1c(O)c2ncc(Cc3ccc(F)cc3)cc2n(CCN2CCCC2=O)c1=O` [Example 428, 7-(4-Fluorobenzyl)-4-hydroxy-N-[(2S)-2-hydroxypropyl]-2-oxo-1-[2-(2-oxopyrrolidin-1-yl)ethyl]-2-dihydro-1,5-naphthyridine-3-carboxamide], the IC50 is reported as under 0.01 µM.

Each compound was assayed on HIV-1 (strain IIIB) (assay: MT4 cell assay: antiviral HIV activity (HIV-induced cytopathic effect)). Settings: Human immunodeficiency virus 1, IIIB, control and standard, propidium iodide readout, tested 0.01 to 1 μM in every assay, read-out: expected range of IC50 values.
Type: cell-based
Protocol: Antiviral HIV activity and compound-induced cytotoxicity were measured in parallel by means of a propidium iodide based procedure in the human T-cell lymphotropic virus transformed cell line MT4. Aliquots of the test compounds were serially diluted in medium (RPMI 1640, 10% fetal calf serum (FCS), and gentamycin) in 96-well plates (Costar 3598) using a Cetus Pro/Pette. Exponentially growing MT4 cells were harvested and centrifuged at 1000 rpm for 10 min in a Jouan centrifuge (model CR 4 12). Cell pellets were resuspended in fresh medium (RPMI 1640, 20% FCS, 20% IL-2, and gentamycin) to a density of 5×10^5 cells/ml. Cell aliquots were infected by the addition of HIV-1 (strain IIIB) diluted to give a viral multiplicity of infection of 100×TCID50. […]
For propidium iodide readout, 27 μl of 5% Nonidet-40 was added to each well of the incubation plate. […] The plates were analyzed in an automated assay instrument (Screen Machine, Idexx Laboratories). […]
For MTS readout, 20 μl CellTiter 96 AQ One Solution reagent (Promega #G3582) was added to each well. At 75 minutes following the addition of MTS reagent, absorbance was read at […] using a Tecan Sunrise 96-well plate reader. […]
For each assay plate, the results (relative fluorescence units, rfU, or OD values) of wells containing uninfected cells or infected cells with no compound were averaged, respectively. […]
`Cc1cn([C@H]2C[C@H](N=[N+]=[N-])[C@@H](CO)O2)c(=O)[nH]c1=O` [3′-azido-3′-deoxythymidine] was tested, and the IC50 was 0.04 to 0.12 µM.
